# Experimental data reported in patent US8765786B2, “1-substituted indazole derivative” (Dainippon Sumitomo Pharma Co., Ltd., priority 2012, dated 2014).
# Target: T1, human α7 nAChR (Homo sapiens, UniProt P36544)
# T1 construct: expressed in transfected cells; host or cells: GH4C1 cells derived from rat pituitary (ATCC CCL-82.2)
# Assay: Evaluation of PAM activity with human α7 nACh receptor stably expressing cells (aequorin luminescence, FDSS7000)
# Assay type: cell-based
# Conditions: result in words; ratio of RLU (Max-Min) to control wells, ACh EC20
# Excerpt: Human α7 nAChR stably expressing cells were generated and cultured. In detail, GH4C1 cells derived from rat pituitary (cat#CCL-82.2, ATCC, USA) were used as a host cell. PcDNA3.1Zeo vector containing a nucleotide sequence encoding a protein GenBank BAC81731 and pcDNA3.1 vector containing human α7 nAChR gene (cat#V790-20, invitrogen, Carlsbad, Calif., USA) were transfected to the cells to give aequorins and human α7 nAChR stably expressing cells respectively. The aequorins and human α7 nAChR stably expressing cells were screened with Zeocin (cat#R25001, invitrogen, Carlsbad, Calif., USA) and Geneticin (cat #10131-027, invitrogen, Carlsbad, Calif., USA) respectively.
# The cells were cultured in F-10 Nutrient Mixture (Ham) medium (cat #11550-043, invitrogen, Carlsbad, Calif., USA) containing 2.5% fetal bovine serum (cat #2917354, ICN Biomedicals, Inc, USA), 15% inactivated horse serum (cat #26050-088, invitrogen, Carlsbad, Calif., USA), 1 μg/mL Geneticin, and 5 μg/mL Puromycin (cat #14861-84, invitrogen, Carlsbad, Calif., USA), in a Collagen Type 1-coated dish (cat #4030-010, iwaki, Tokyo, Japan). During the culture, the medium was replaced with fresh medium in every 2 to 3 days, and the cells were treated with TrypLE Express (cat #45604-021, invitrogen, Carlsbad, Calif., USA) to collect them in every 7 days. Thus, the cells were subcultured.
# 7 Days after subculturing, the cells were treated with TrypLE Express to collect them when they were about 80% confluent. The cells were suspended in a reaction medium containing Hanks (cat #14065-056, invitrogen, Carlsbad, Calif., USA)/20 mmol/L Hepes (cat #15630-080, invitrogen, Carlsbad, Calif., USA), Buffer (pH 7.4), F-10 Nutrient Mixture (Ham), and 0.1 mg/mL Geneticin, and the suspension was seeded in a 384-well plate (cat #781090, Greiner, Germany) at 20000 cells/25 μL per well.
# On the next day after seeding, Viviren (cat#E649X, Promega, Madison, Wis., USA) was added to the medium so that the final concentration could be 4 μmol/L (15 μL/well). The plates were centrifuged and then placed in the dark for 4 hours at room temperature.
# Each of the test compounds was dissolved in DMSO to prepare each test sample at a concentration of 1000-fold the final concentration. To the solution was added Hanks/20 mM HEPES/0.2% BSA (cat#A3803, Sigma, St. Louis, Mo., USA), and the concentration was adjusted to 6-fold the final concentration.
# FDSS7000 (Hamamatsu Photonics) was used to detect the luminescence signal evoked by α7 nAChR stimulation. The cells and a luminescent substrate were put on a plate, and the test sample was added thereto. […] After the addition of ACh, the luminescence signal (the central wavelength: 465 nm) was measured for 138 seconds to calculate RLU (Max-Min). The ratio of the RLU (Max-Min) of the test-compound-containing wells to that of the control wells was defined as PAM activity.
# T1 sequence (P36544 23-502): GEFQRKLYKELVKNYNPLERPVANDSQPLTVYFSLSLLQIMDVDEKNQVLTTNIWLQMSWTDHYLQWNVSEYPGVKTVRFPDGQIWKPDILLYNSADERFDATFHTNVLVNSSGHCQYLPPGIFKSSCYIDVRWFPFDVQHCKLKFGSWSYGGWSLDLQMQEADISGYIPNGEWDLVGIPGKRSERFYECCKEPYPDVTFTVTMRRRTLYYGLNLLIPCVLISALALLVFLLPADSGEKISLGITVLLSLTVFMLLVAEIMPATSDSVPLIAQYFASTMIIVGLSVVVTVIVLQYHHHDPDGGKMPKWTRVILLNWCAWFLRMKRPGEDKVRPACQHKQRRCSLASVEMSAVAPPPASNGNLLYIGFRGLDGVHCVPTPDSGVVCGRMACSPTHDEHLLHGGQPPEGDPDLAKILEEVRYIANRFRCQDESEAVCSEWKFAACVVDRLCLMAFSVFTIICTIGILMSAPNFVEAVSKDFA
row,PAM activity for α7 nAChR,SMILES
1,stronger PAM activity than others,CCc1ccc2c(cnn2[C@H]2CC[C@@H](NC(=O)C3CCCCC3)CC2)c1 [Example 119]

# Same assay, conditions: test compound 10 μmol/L; ACh added at EC20; ratio of RLU (Max-Min) of test wells to control wells
row,SMILES,α7PAM (%) @ 10 μmol/L
1,CCOc1nn(C2CCN(C(=O)NC3CCCC3)CC2)c2ccc(CC)cc12 [Example 56],676%
2,CCOc1nn(C2CCN(C(=O)NC3CCC(OC)CC3)CC2)c2ccc(CC)cc12 (centres unmarked) [Example 57],382%
3,CCc1ccc2c(c1)c(OC(C)C)nn2C1CCN(C(=O)NC2CCCC2)CC1 [Example 58],577%
4,CCc1ccc2c(c1)c(OC(C)C)nn2C1CCN(C(=O)NC2CCC(OC)CC2)CC1 (centres unmarked) [Example 59],433%
5,CCOc1nn(C2CCN(C(=O)NC3CCCCC3)CC2)c2ccc(CC)cc12 [Example 60],846%
6,CCOc1nn(C2CCN(C(=O)NC3CCC(F)(F)CC3)CC2)c2ccc(CC)cc12 [Example 61],1092%
7,CCc1ccc2c(c1)c(OC(C)C)nn2C1CCN(C(=O)NC2CCC(F)(F)CC2)CC1 [Example 62],653%
8,O=C(NC1CCOCC1)N1CCC(n2ncc3cc(Br)ccc32)CC1 [Example 65],385%
9,COCc1nn(C2CCN(C(=O)NC3CCCC3)CC2)c2ccc(C)cc12 [Example 67],436%
10,COCc1nn(C2CCN(C(=O)NC3CCCCC3)CC2)c2ccc(C)cc12 [Example 68],430%
11,COCc1nn(C2CCN(C(=O)NC3CCC(OC)CC3)CC2)c2ccc(C)cc12 (centres unmarked) [Example 69],242%
12,COC1CCC(NC(=O)N2CCC(n3ncc4cc(Br)ccc43)CC2)CC1 (centres unmarked) [Example 71],763%
13,CCc1ccc2c(cnn2C2CCCN(C(=O)NC3CCC(F)(F)CC3)CC2)c1 (centres unmarked) [Example 73],453%
14,O=C(NC1CCOCC1)N1CCC(n2ncc3cc(C4CC4)ccc32)CC1 [Example 75],621%
15,CCCc1ccc2c(cnn2C2CCN(C(=O)NC3CCC(OC)CC3)CC2)c1 (centres unmarked) [Example 76],420%
16,O=C(NC1CCC(F)(F)CC1)N1CCC(n2ncc3cc(C4CC4)ccc32)CC1 [Example 77],1780%
17,Cc1ccc2c(cnn2C2CCN(C(=O)NC3CCCC(F)(F)C3)CC2)c1 (centres unmarked) [Example 82],888%

row,SMILES,α7PAM (%) @ 10 μmol/L
1,Cc1ccc2c(cnn2C2CCN(C(=O)NC3CCC(OCC(F)(F)F)CC3)CC2)c1 (centres unmarked) [Example 83],420%
2,CCc1ccc2c(cnn2C2CCCN(C(=O)NC3CCC(OC)CC3)CC2)c1 (centres unmarked) [Example 84],179%
3,COc1ccc2c(cnn2C2CCN(C(=O)N[C@@H]3CCCCC3(F)F)CC2)c1 [Example 85],1081%
4,COc1ccc2c(cnn2C2CCN(C(=O)NC3CCCCC3(F)F)CC2)c1 (centres unmarked) [Example 86],1481%
5,COc1ccc2c(cnn2C2CCN(C(=O)NC3CCCC3(F)F)CC2)c1 (centres unmarked) [Example 87],514%
6,COc1ccc2c(cnn2C2CCN(C(=O)NC3CCCC3(F)F)CC2)c1 (centres unmarked) [Example 88],1063%
7,COC1CCC(NC(=O)N2CCC(n3nc(C)c4cc(C)ccc43)CC2)CC1 (centres unmarked) [Example 89],1506%
8,COC1CCC(NC(=O)N2CCC(n3ncc4cc(C)ccc43)CC2)CC1 (centres unmarked) [Example 91],217%
9,CCc1ccc2c(cnn2C2CCN(C(=O)NC3CCC(OC)CC3)CC2)c1 (centres unmarked) [Example 92],356%
10,Cc1cccc2c1cnn2C1CCN(C(=O)NC2CCC(F)(F)CC2)CC1 [Example 93],934%
11,COC1CCC(NC(=O)N2CCC(n3ncc4c(C)cccc43)CC2)CC1 (centres unmarked) [Example 94],154%
12,COC1CCC(NC(=O)N2CCC(n3ncc4c(C)cccc43)CC2)CC1 (centres unmarked) [Example 95],133%
13,CCOC1CCC(NC(=O)N2CCC(n3ncc4c(C)cccc43)CC2)CC1 (centres unmarked) [Example 96],143%
14,Cc1cccc2c1cnn2C1CCN(C(=O)NC2CCC(OC(F)F)CC2)CC1 (centres unmarked) [Example 97],117%
15,COC1CCC(NC(=O)N2CCC(n3ncc4c(Br)cccc43)CC2)CC1 (centres unmarked) [Example 98],89%
16,CCc1cnc2c(cnn2C2CCN(C(=O)NC3CCC(F)(F)CC3)CC2)c1 [Example 99],755%

# Results, then the compound that gave them:
row,α7PAM (%) @ 10 μmol/L,SMILES
1,198%,CCc1cnc2c(cnn2C2CCN(C(=O)NC3CCC(OC)CC3)CC2)c1 (centres unmarked) [Example 100]
2,338%,CCc1cnc2c(cnn2C2CCN(C(=O)NC3CCOCC3)CC2)c1 [Example 101]
3,228%,O=C(C1CCOCC1)N1CCC(n2ncc3cc(Br)ccc32)CC1 [Example 102]
4,190%,O=C(C1CCOCC1)N1CCC(n2ncc3cc(F)ccc32)CC1 [Example 104]
5,338%,Cc1ccc2c(cnn2C2CCN(C(=O)C3CCCCC3)CC2)c1 [Example 105]
6,164%,Cc1ccc2c(cnn2C2CCN(C(=O)C3CCCC3)CC2)c1 [Example 106]
7,159%,CC(C)c1ccc2c(cnn2C2CCN(C(=O)C3CCOCC3)CC2)c1 [Example 107]
8,207%,CCCc1ccc2c(cnn2C2CCN(C(=O)C3CCOCC3)CC2)c1 [Example 108]
9,267%,CCOc1ccc2c(cnn2C2CCN(C(=O)C3CCCCC3)CC2)c1 [Example 109]
10,291%,CCOc1ccc2c(cnn2C2CCN(C(=O)C3CCCC3)CC2)c1 [Example 110]
11,410%,CCc1ccc2c(cnn2C2CCN(C(=O)C3CCOCC3)CC2)c1 [Example 111]
12,265%,CCOc1ccc2c(cnn2C2CCN(C(=O)c3ccc(F)cc3)CC2)c1 [Example 112]
13,654%,CCc1ccc2c(cnn2C2CCN(C(=O)C3CCC(F)(F)CC3)CC2)c1 [Example 113]
14,189%,CCOc1ccc2c(cnn2C2CCN(C(=O)c3ccc(F)cn3)CC2)c1 [Example 114]
15,182%,CC(C)Oc1ccc2c(cnn2C2CCN(C(=O)c3ccc(F)cn3)CC2)c1 [Example 115]
16,279%,CC(C)Oc1ccc2c(cnn2C2CCN(C(=O)C3CCC(F)(F)CC3)CC2)c1 [Example 116]
17,209%,CCc1ccc2c(cnn2C2CCN(C(=O)C3CCC(OC)CC3)CC2)c1 (centres unmarked) [Example 117]
18,188%,CCc1ccc2c(cnn2C2CCN(C(=O)c3ccc(F)cn3)CC2)c1 [Example 118]
19,2154%,CCc1ccc2c(cnn2[C@H]2CC[C@@H](NC(=O)C3CCCCC3)CC2)c1 [Example 119]
20,654%,CCc1ccc2c(cnn2[C@H]2CC[C@@H](NC(=O)C3CCOCC3)CC2)c1 [Example 120]
21,410%,CCc1ccc2c(cnn2[C@H]2CC[C@@H](NC(=O)[C@H]3CC[C@H](OC)CC3)CC2)c1 [Example 122]

# Same assay, conditions: test compound 10 μmol/L; ACh added at EC20; ratio of RLU (Max-Min) of test wells to control wells; read-out: α7PAM (%) @ 10 μmol/L
row,activity at 10 µM,SMILES
1,719%,"O=C(NC1CCC(F)(F)CC1)N1CCC(n2ncc3cc(-c4ccc(F)cc4)ccc32)CC1 [Example 70, N-(4,4-difluorocyclohexyl)-4-(5-(4-fluorophenyl)-1H-indazol-1-yl)piperidine-1-carboxamide]"
2,987%,"Cc1ccc2c(cnn2C2CCN(C(=O)N[C@@H]3CCCCC3(F)F)CC2)c1 [Example 78, (R)—N-(2,2-difluorocyclohexyl)-4-(5-methyl-1H-indazol-1-yl)piperidine-1-carboxamide]"
3,819%,"Cc1ccc2c(cnn2C2CCN(C(=O)N[C@@H]3CCCC3(F)F)CC2)c1 [Example 81, (R) —N-(2,2-difluorocyclopentyl)-4-(5-methyl-1H-indazol-1-yl)piperidine-1-carboxamide]"
4,281%,"CC(C)Cc1ccc2c(cnn2C2CCN(C(=O)C3CCOCC3)CC2)c1 [Example 103, (4-(5-isobutyl-1H-indazol-1-yl)piperidin-1-yl)(tetrahydro-2H-pyran-4-yl)methanone]"
